As usually defined, the viability, T/C is the result in the treated group divided by that in the control group, in per cent.

Our source for the viability, T/C values is PubChem BioAssay AID2060501 (Molecular Pharmacology Branch, DTP, NCI, 2025).
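Further: spheroids exposed to compounds for 7 days before readout; percent of vehicle DMSO control viability with 100% = untreated-like growth.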

The subject of the first experiment is 282377-053-R-J1-PDC complex spheroids, viability. Nature of the experiment: Anticancer human tumor 282377-053-R-J1-PDC patient-derived colon adenocarcinoma cell line growth inhibition [GQUAD]. Conditions: second compound 0.316 µM; first compound 1 µM; stronger effect = lower value. An excerpt: DNA G-quadruplex Stabilizer Agents in Combinations in Complex Spheroids
A high-throughput screen of multi-cell type tumor spheroids was designed to identify active combinations of DNA G-quadruplex stabilizer agents and targeted small molecules. Complex spheroids include a stromal component modeled by human endothelial cells (HUVEC) and fibroblasts modeled by human mesenchymal stem cells (MSCs). The concentration ranges selected for each drug and investigational agent were based upon clinically achievable concentrations if the clinical Cmax of the agent was known.
Compounds. The drugs and investigational agents: pidnarulex (CX-5461; NSC782164), APTO-253 (NSC789042), BRACO-19 (NSC847499), peposertib (NSC802822), ceralasertib (NSC780249), elimusertib (NSC800525), camonsertib (NSC841442), AZD-1390 (NSC803789), olaparib (NSC753686), talazoparib (NSC767125), ART-558 (NSC835418), sotorasib (NSC818433), MRTX-1133 (NSC836407), SN-38 (NSC673596), topotecan (NSC609699), etoposide (NSC141540), doxorubicin (NSC123127), gemcitabine (NSC613327), 5-fluorouracil (NSC19893), paclitaxel (NSC125973), vemurafenib (NSC761431), panobinostat (NSC761190), R-306465 (JNJ-16241199; NSC773264), adavosertib (NSC754352), TP-3654 (NSC805149), carboplatin (NSC241240), KSQ-4279 (NSC840948), and staurosporine (NSC755774) were obtained from the National Cancer Institute (NCI) Developmental Therapeutics Program Chemical Repository (34). The FDA-approved anticancer drug set is available from the NCI Developmental Therapeutics Program. […] The stock solutions were prepared in dimethyl sulfoxide (DMSO, Sigma-Aldrich, St. Louis, MO, cat. D2650) at 800-fold the tested concentration and stored at -70 degrees C prior to their use. All drugs and investigational agents were tested over a range starting from a high concentration at or near the clinical Cmax and decreasing in half-log increments. If the clinical Cmax for an agent had not been determined, the highest concentration tested was 10 microM.
2.3 Cell Culture. All cells were maintained in an incubator at 37 degrees C and 5% CO2 with 95% humidity. The PDC lines were cultured according to standard operating procedures established by the NCI PDMR. All PDCs were thawed and cultured in Matrigel-coated flasks prepared with a working solution of 1X Ham's F-12 nutrient mix, without supplementation (Invitrogen, cat. 11765054), 100 U/mL penicillin-streptomycin (Invitrogen, cat. 15140122), and 2.5% Matrigel (Corning Inc., cat. 354248) for the first three passages. The 857933-349-R-J2-PDC line was cultured in 6C/Colon 1B media, which includes advanced DMEM/F-12 (Thermo Fisher Scientific, cat. 12634028), 10 mM HEPES (Thermo Fisher Scientific, cat. 15630080), 1X GlutaMAX supplement (Thermo Fisher Scientific, cat. 35050061), 0.1 mg/mL primocin (InvivoGen, cat. ant-pm-2), 10% defined fetal bovine serum, heat inactivated (HyClone Laboratories Inc., cat. SH30070.03HI), 50% L-WRN conditioned media (ATCC, cat. CRL-3276), 1.25 mM N-Acetyl-L-cysteine (Sigma-Aldrich, cat. A9165), 10 mM nicotinamide (Sigma-Aldrich, cat. N0636), 1X B-27 supplement (Thermo Fisher Scientific, cat. 17504044), 1X N-2 supplement (Thermo Fisher Scientific, cat. 17502048), 10 microM Y-27632 dihydrochloride (Tocris Bioscience, cat. 1254), and 50 ng/mL human EGF recombinant protein (Thermo Fisher Scientific, cat. PHG0311). The 485176-168-R4-J1-PDC line was cultured in Panc media, which includes all 6C/Colon 1B media components plus 100 ng/mL human FGF-10 (Thermo Fisher Scientific, cat. 100-26), 500 nM SB-431542 (Selleckchem, cat. S1067), and gastrin (Tocris, cat. 3006).
[…]
Regarding `CCCS(=O)(=O)Nc1ccc(F)c(C(=O)c2c[nH]c3ncc(-c4ccc(Cl)cc4)cc23)c1F` + CN(C)c1ccc(Nc2c3ccc(NC(=O)CCN4CCCC4)cc3nc3cc(NC(=O)CCN4CCCC4)ccc23)cc1, the viability, T/C was 49.3%.
Still for that read-out and setting: the result for `CC(C)n1c(=O)n(C)c2cnc3cc(F)c(-c4ccc(OCCCN5CCCCC5)nc4)cc3c21` + Cc1[nH]c2ccc(F)cc2c1-c1nc2c3cccnc3c3ncccc3c2[nH]1 reads 112%; that for `O=C(c1cc(Cc2n[nH]c(=O)c3ccccc23)ccc1F)N1CCN(C(=O)C2CC2)CC1` + Cc1[nH]c2ccc(F)cc2c1-c1nc2c3cccnc3c3ncccc3c2[nH]1, 107%.

The same experiment, now with this note: second compound 0.316 µM; first compound 3.16 µM; stronger effect = lower value.
In the case of `CCCS(=O)(=O)Nc1ccc(F)c(C(=O)c2c[nH]c3ncc(-c4ccc(Cl)cc4)cc23)c1F` + CN(C)c1ccc(Nc2c3ccc(NC(=O)CCN4CCCC4)cc3nc3cc(NC(=O)CCN4CCCC4)ccc23)cc1, the viability, T/C was 57.2%.
For `CC(C)n1c(=O)n(C)c2cnc3cc(F)c(-c4ccc(OCCCN5CCCCC5)nc4)cc3c21` + Cc1[nH]c2ccc(F)cc2c1-c1nc2c3cccnc3c3ncccc3c2[nH]1, the viability, T/C was 108%.
Still for that read-out and setting: under `O=C(c1cc(Cc2n[nH]c(=O)c3ccccc23)ccc1F)N1CCN(C(=O)C2CC2)CC1` + Cc1[nH]c2ccc(F)cc2c1-c1nc2c3cccnc3c3ncccc3c2[nH]1 stands 97.1%.

The experiment is the same for the next values; noted with them: second compound 0.316 µM; first compound 10 µM; stronger effect = lower value.
Regarding `CCCS(=O)(=O)Nc1ccc(F)c(C(=O)c2c[nH]c3ncc(-c4ccc(Cl)cc4)cc23)c1F` + CN(C)c1ccc(Nc2c3ccc(NC(=O)CCN4CCCC4)cc3nc3cc(NC(=O)CCN4CCCC4)ccc23)cc1, the viability, T/C is 15.6%.
On the same count and under the same terms, the result for `CC(C)n1c(=O)n(C)c2cnc3cc(F)c(-c4ccc(OCCCN5CCCCC5)nc4)cc3c21` + Cc1[nH]c2ccc(F)cc2c1-c1nc2c3cccnc3c3ncccc3c2[nH]1 reads 91.5%; that for `O=C(c1cc(Cc2n[nH]c(=O)c3ccccc23)ccc1F)N1CCN(C(=O)C2CC2)CC1` + Cc1[nH]c2ccc(F)cc2c1-c1nc2c3cccnc3c3ncccc3c2[nH]1, 97%.

The same experiment, now with this note: second compound 1 µM; first compound 0.0316 µM; stronger effect = lower value.
For `CCCS(=O)(=O)Nc1ccc(F)c(C(=O)c2c[nH]c3ncc(-c4ccc(Cl)cc4)cc23)c1F` + CN(C)c1ccc(Nc2c3ccc(NC(=O)CCN4CCCC4)cc3nc3cc(NC(=O)CCN4CCCC4)ccc23)cc1, the viability, T/C is 79.8%.
On to `CC(C)n1c(=O)n(C)c2cnc3cc(F)c(-c4ccc(OCCCN5CCCCC5)nc4)cc3c21` + Cc1[nH]c2ccc(F)cc2c1-c1nc2c3cccnc3c3ncccc3c2[nH]1, for which the viability, T/C was 106%.
Consider `O=C(c1cc(Cc2n[nH]c(=O)c3ccccc23)ccc1F)N1CCN(C(=O)C2CC2)CC1` + Cc1[nH]c2ccc(F)cc2c1-c1nc2c3cccnc3c3ncccc3c2[nH]1, for which the viability, T/C is 101%.

Staying with this experiment, now noted: second compound 1 µM; first compound 0.1 µM; stronger effect = lower value.
Consider `CCCS(=O)(=O)Nc1ccc(F)c(C(=O)c2c[nH]c3ncc(-c4ccc(Cl)cc4)cc23)c1F` + CN(C)c1ccc(Nc2c3ccc(NC(=O)CCN4CCCC4)cc3nc3cc(NC(=O)CCN4CCCC4)ccc23)cc1, for which the viability, T/C was 60.9%.
On the same count and under the same terms, under `CC(C)n1c(=O)n(C)c2cnc3cc(F)c(-c4ccc(OCCCN5CCCCC5)nc4)cc3c21` + Cc1[nH]c2ccc(F)cc2c1-c1nc2c3cccnc3c3ncccc3c2[nH]1 stands 116%; under `O=C(c1cc(Cc2n[nH]c(=O)c3ccccc23)ccc1F)N1CCN(C(=O)C2CC2)CC1` + Cc1[nH]c2ccc(F)cc2c1-c1nc2c3cccnc3c3ncccc3c2[nH]1, 111%.

Still in this experiment, the particulars now being: second compound 1 µM; first compound 0.316 µM; stronger effect = lower value.
`CCCS(=O)(=O)Nc1ccc(F)c(C(=O)c2c[nH]c3ncc(-c4ccc(Cl)cc4)cc23)c1F` + CN(C)c1ccc(Nc2c3ccc(NC(=O)CCN4CCCC4)cc3nc3cc(NC(=O)CCN4CCCC4)ccc23)cc1: the viability, T/C is 89.3%.
On the same count and under the same terms, the result for `CC(C)n1c(=O)n(C)c2cnc3cc(F)c(-c4ccc(OCCCN5CCCCC5)nc4)cc3c21` + Cc1[nH]c2ccc(F)cc2c1-c1nc2c3cccnc3c3ncccc3c2[nH]1 reads 107%.
In the case of `O=C(c1cc(Cc2n[nH]c(=O)c3ccccc23)ccc1F)N1CCN(C(=O)C2CC2)CC1` + Cc1[nH]c2ccc(F)cc2c1-c1nc2c3cccnc3c3ncccc3c2[nH]1, the viability, T/C was 122%.

The experiment is the same for the next values; noted with them: second compound 1 µM; first compound 1 µM; stronger effect = lower value.
Turning to `CCCS(=O)(=O)Nc1ccc(F)c(C(=O)c2c[nH]c3ncc(-c4ccc(Cl)cc4)cc23)c1F` + CN(C)c1ccc(Nc2c3ccc(NC(=O)CCN4CCCC4)cc3nc3cc(NC(=O)CCN4CCCC4)ccc23)cc1, the viability, T/C is 57.6%.
Same read-out and setting: under `CC(C)n1c(=O)n(C)c2cnc3cc(F)c(-c4ccc(OCCCN5CCCCC5)nc4)cc3c21` + Cc1[nH]c2ccc(F)cc2c1-c1nc2c3cccnc3c3ncccc3c2[nH]1 stands 112%; under `O=C(c1cc(Cc2n[nH]c(=O)c3ccccc23)ccc1F)N1CCN(C(=O)C2CC2)CC1` + Cc1[nH]c2ccc(F)cc2c1-c1nc2c3cccnc3c3ncccc3c2[nH]1, 111%.

Still in this experiment, the particulars now being: second compound 1 µM; first compound 3.16 µM; stronger effect = lower value.
With `CCCS(=O)(=O)Nc1ccc(F)c(C(=O)c2c[nH]c3ncc(-c4ccc(Cl)cc4)cc23)c1F` + CN(C)c1ccc(Nc2c3ccc(NC(=O)CCN4CCCC4)cc3nc3cc(NC(=O)CCN4CCCC4)ccc23)cc1, the viability, T/C is 59.2%.
Still for that read-out and setting: the result for `CC(C)n1c(=O)n(C)c2cnc3cc(F)c(-c4ccc(OCCCN5CCCCC5)nc4)cc3c21` + Cc1[nH]c2ccc(F)cc2c1-c1nc2c3cccnc3c3ncccc3c2[nH]1 reads 98.4%; that for `O=C(c1cc(Cc2n[nH]c(=O)c3ccccc23)ccc1F)N1CCN(C(=O)C2CC2)CC1` + Cc1[nH]c2ccc(F)cc2c1-c1nc2c3cccnc3c3ncccc3c2[nH]1, 110%.

Staying with this experiment, now noted: second compound 1 µM; first compound 10 µM; stronger effect = lower value.
Take `CCCS(=O)(=O)Nc1ccc(F)c(C(=O)c2c[nH]c3ncc(-c4ccc(Cl)cc4)cc23)c1F` + CN(C)c1ccc(Nc2c3ccc(NC(=O)CCN4CCCC4)cc3nc3cc(NC(=O)CCN4CCCC4)ccc23)cc1: the viability, T/C is 23.6%.
With `CC(C)n1c(=O)n(C)c2cnc3cc(F)c(-c4ccc(OCCCN5CCCCC5)nc4)cc3c21` + Cc1[nH]c2ccc(F)cc2c1-c1nc2c3cccnc3c3ncccc3c2[nH]1, the viability, T/C is 93%.
Take `O=C(c1cc(Cc2n[nH]c(=O)c3ccccc23)ccc1F)N1CCN(C(=O)C2CC2)CC1` + Cc1[nH]c2ccc(F)cc2c1-c1nc2c3cccnc3c3ncccc3c2[nH]1: the viability, T/C is 114%.

The same experiment, now with this note: second compound 3.16 µM; first compound 0.0316 µM; stronger effect = lower value.
For the compound `CCCS(=O)(=O)Nc1ccc(F)c(C(=O)c2c[nH]c3ncc(-c4ccc(Cl)cc4)cc23)c1F` + CN(C)c1ccc(Nc2c3ccc(NC(=O)CCN4CCCC4)cc3nc3cc(NC(=O)CCN4CCCC4)ccc23)cc1, the viability, T/C was 73.3%.
For the compound `CC(C)n1c(=O)n(C)c2cnc3cc(F)c(-c4ccc(OCCCN5CCCCC5)nc4)cc3c21` + Cc1[nH]c2ccc(F)cc2c1-c1nc2c3cccnc3c3ncccc3c2[nH]1, the viability, T/C was 89%.
As for `O=C(c1cc(Cc2n[nH]c(=O)c3ccccc23)ccc1F)N1CCN(C(=O)C2CC2)CC1` + Cc1[nH]c2ccc(F)cc2c1-c1nc2c3cccnc3c3ncccc3c2[nH]1, the viability, T/C was 75.4%.

Still in this experiment, the particulars now being: second compound 3.16 µM; first compound 0.1 µM; stronger effect = lower value.
As to `CCCS(=O)(=O)Nc1ccc(F)c(C(=O)c2c[nH]c3ncc(-c4ccc(Cl)cc4)cc23)c1F` + CN(C)c1ccc(Nc2c3ccc(NC(=O)CCN4CCCC4)cc3nc3cc(NC(=O)CCN4CCCC4)ccc23)cc1, the viability, T/C is 72.5%.
